Source: patent publication EP3922633B1, “METHOD FOR EXTRACTING PYRROLIZIDINE ALKALOIDS” (priority 2020, dated 2021)
Like-named read-outs stand apart in the source and are kept apart here.

What was measured:
[1] = Presence or absence of pyrrolizidine alkaloid signals (UPLC-HRMS) in doped lemon, orange and eucalyptus essential oils after hydrodistillation; format: physicochemical; details: for signaux dans la phase organique recueillie après hydrodistillation: huiles essentielles de citron, d'orange et d'eucalyptus dopées jusqu'à 100 ppm, 2 h hydrodistillation, UPLC-HRMS/TOF; for profils UPLC-MS ciblés: presence in huile essentielle avec standards et distillée: huile essentielle de citron, likewise essences d'orange et d'eucalyptus (figure 1, figure 2)
Method: (§1) Dans un ballon de 500 mL, on introduit 300 mL d'eau distillée, un barreau magnétique, quelques pierres ponces et une quantité pesée d'échantillon entre 15 et 30 g.
(§2) Le ballon est alors raccordé à un appareil de type Clevenger et placé dans un bain d'huile chauffant.
(§3) On ajoute 10 mL d'eau distillée et 4 à 5 mL de pentane afin de remplir le séparateur.
(§4) On ouvre l'arrivée d'eau pour le réfrigérant et on porte à reflux pendant deux heures.
(§5) On arrête alors le chauffage et on laisse décanter. La phase organique et la phase aqueuse décantent dans le séparateur et sont recueillies.
(§6) […]. Conditions HR-TOF-MS : Les analyses ont été effectuées sur un système Waters XEVO G2 TOF. Conditions de source ESI : tension capillaire : 0,5 kV, tension de cône : 45 V, cône d'extraction : 4 V, température de source : 120 °C, température de désolvatation : 400 °C, débit de gaz : 10 L/h, débit de gaz de désolvatation : 1200 L/h. Les analyses ont été effectuées en mode positif. Le spectromètre de masse a été étalonné avec du formiate de sodium pour une gamme de masse allant de 50 à 1200 Da. La Leucine-Enképhaline (lockmass) est le standard utilisé pour corriger les masses. Les deux masses caractéristiques de la Leucine-Enképhaline ont été vérifiées (278,1141; 556,2771). Les acquisitions ont été réalisées en mode MSE en utilisant l'argon comme gaz de collision. Fragmentation : Le mode MSE permet l'acquisition simultanée de spectres de masse à l'énergie de collision faible et élevée, le premier permettant d'obtenir un ion parent, le dernier de produire des ions fragments.
(§7) Après dilution des extraits d'huile essentielle dans du méthanol, les alcaloïdes pyrrolizidiniques sont chromatographiés par système RP-UPLC, en mode gradient d'élution, détectés et identifiés par spectrométrie de masse et quantifiés par une méthode d'étalonnage externe.
(§8) Dans une fiole jaugée de 20 mL, on pèse exactement 1 g (Pe) de l'échantillon et on ajuste avec du méthanol. La solution est homogénéisée pendant 3 min avec un bain à ultrasons, puis filtrée à l'aide d'une seringue sur un filtre en PTFE de 0,25 µm, puis transférée dans un flacon d'injection.
Afin de démontrer le principe de l'invention, une étude quantitative destinée à montrer la présence ou l'absence d'alcaloïdes pyrrolizidiniques dans des échantillons d'huile essentielle enrichis en alcaloïdes pyrrolizidiniques a été réalisée avant et après hydrodistillation.
Dans cette étude, on a utilisé des alcaloïdes pyrrolizidiniques disponibles commercialement et représentant deux classes précédemment décrites de type II et IV, à savoir : alcaloïde type cyclique (classe la plus représentée) pour la sénécionine, sénécionine-N-oxyde [13268-67-2], rétrorsine, rétrorsine-N-oxyde [15503-86-3], jacobine [3870-67-3], jacobine-N-oxyde [38710-25-7], sénéciphylline, sénéciphylline-N-oxyde [38710-26-8], et alcaloïde type mono-ester pour la lycopsamine [10285-07-1], lycopsamine-N-oxyde [95462-15-0], intermédine [10285-06-0], intermédine-N-oxyde [95462-14-9].
(§9) Trois huiles essentielles de citron, d'orange et d'eucalyptus, dopées jusqu'à 100 ppm de chacun des alcaloïdes pyrrolizidiniques et de leurs oxydes respectifs, ont été hydrodistillées séparément pendant deux heures selon le protocole décrit à l'exemple 1. L'expérimentation est réalisée en duplicat.
(§10) Avant et après hydrodistillation, les phases organique et aqueuse sont séparées et injectées en UPLC-HRMS/TOF.

[2] = Hydrodistillation of lemon essential oil doped with pyrrolizidine alkaloids; alkaloids assayed in distillate and aqueous phase by UPLC-HRMS/TOF; format: physicochemical; details: for φ Aqueuse (résidu de distillation) CT [ppm]: Concentration théorique; for φ Aqueuse (résidu de distillation) C [ppm] / φ Organique (distillat) C [ppm]: after 2 h hydrodistillation; for φ Organique (distillat) C [ppm]: LOQ : 2 ppb
Method: as §1, §2, §3, §4, §5, §6, §7
Des solutions standards d'alcaloïdes pyrrolizidiniques sont préparées comme suit : Dans une fiole jaugée de 100 mL (Vf), on pèse exactement 10 mg (Ms) des substances étalons et on ajuste avec du méthanol. Les solutions sont homogénéisées avec un bain à ultrasons pendant 3 min.
La concentration de la solution standard est donnée par l'équation suivante : C (mg/mL) = (Ms×Pu)/(100×Vf) [formula] • Ms = Poids de la substance standard • Pu = Pureté de la substance étalon en pourcentage
Ensuite, cette solution mère est diluée jusqu'à obtenir les concentrations appropriées pour la sensibilité du détecteur.
as §8
Si nécessaire, cette solution doit être successivement diluée pour tomber dans une plage de linéarité appropriée du détecteur.
as §9, §10

rat = details: cited from earlier work
[3] = Tableau 3, Huile essentielle de Citron dopée, (duplicate 2)
[4] = Tableau 3, Huile essentielle de Citron dopée, duplicate 1
[5] = Tableau 4, Huile essentielle de Citron dopée (as titled), (duplicate 2)
[6] = Tableau 4, Huile essentielle de Citron dopée (as titled), duplicate 1
[7] = administrés régulièrement par voie orale

SMILES: C[C@@H]1C[C@@]2(O[C@H]2C)C(=O)O[C@@H]2CCN3CC=C(COC(=O)[C@]1(C)O)[C@H]23 [jacobine]
- signaux dans la phase organique recueillie après hydrodistillation [1]: absence des signaux

SMILES: C/C=C1/C[C@@H](C)[C@@](C)(O)C(=O)OCC2=CC[N+]3([O-])CC[C@@H](OC1=O)[C@@H]23 (stereo partly drawn) [sénécionine-N-oxyde]
- signaux dans la phase organique recueillie après hydrodistillation [1]: absence des signaux

SMILES: C=C1C/C(=C/C)C(=O)O[C@@H]2CC[N+]3([O-])CC=C(COC(=O)[C@]1(C)O)[C@H]23 (stereo partly drawn) [séneciphylline-N-oxyde, sénéciphylline-N-oxyde]
- signaux dans la phase organique recueillie après hydrodistillation [1]: absence des signaux

SMILES: C/C=C1\C[C@@H](C)[C@](O)(CO)C(=O)OCC2=CCN3CC[C@@H](OC1=O)[C@@H]23 [Rétrorsine]
- φ Aqueuse (résidu de distillation) CT [ppm] [2, 3]: 0,868 ppm
- φ Aqueuse (résidu de distillation) CT [ppm] [2, 4]: 0,806 ppm
- φ Aqueuse (résidu de distillation) C [ppm] [2, 3]: 0,839 ppm
- φ Organique (distillat) C [ppm] [2, 3]: < LoQ
- φ Aqueuse (résidu de distillation) C [ppm] [2, 4]: 0,810 ppm
- φ Organique (distillat) C [ppm] [2, 4]: < LoQ
- φ Aqueuse (résidu de distillation) CT [ppm] [2, 5]: 0.828 ppm
- φ Aqueuse (résidu de distillation) CT [ppm] [2, 6]: 0.797 ppm
- φ Aqueuse (résidu de distillation) C [ppm] [2, 5]: 0.711 ppm
- φ Organique (distillat) C [ppm] [2, 5]: < LoQ
- φ Aqueuse (résidu de distillation) C [ppm] [2, 6]: 0.663 ppm
- φ Organique (distillat) C [ppm] [2, 6]: < LoQ
- profils UPLC-MS ciblés: presence in huile essentielle avec standards et distillée [1]: absentes
- signaux dans la phase organique recueillie après hydrodistillation [1]: absence des signaux
- tumeurs hépatiques (rat; [7]): provoquer des tumeurs hépatiques

SMILES: CC(C)[C@@](O)(C(=O)OCC1=CC[N+]2([O-])CC[C@@H](O)[C@@H]12)[C@@H](C)O (stereo partly drawn) [intermédine-N-oxyde]
- signaux dans la phase organique recueillie après hydrodistillation [1]: absence des signaux

SMILES: C[C@@H]1C[C@@]2(O[C@H]2C)C(=O)O[C@@H]2CC[N+]3([O-])CC=C(COC(=O)[C@]1(C)O)[C@H]23 (stereo partly drawn) [jacobine-N-oxyde]
- signaux dans la phase organique recueillie après hydrodistillation [1]: absence des signaux

SMILES: C[C@H]1C(=O)O[C@@H]2CCN3CC=C(COC(=O)[C@](C)(O)[C@]1(C)O)[C@H]23 [monocrotaline]
- tumeurs hépatiques (rat; in vivo): provoquer des tumeurs hépatiques

SMILES: CC(C)[C@@](O)(C(=O)OCC1=CC[N+]2([O-])CC[C@@H](O)[C@@H]12)[C@H](C)O (stereo partly drawn) [Lycopsamine-N-oxyde]
- φ Aqueuse (résidu de distillation) CT [ppm] [2, 5]: 0.030 ppm
- φ Aqueuse (résidu de distillation) CT [ppm] [2, 6]: 0.028 ppm
- φ Aqueuse (résidu de distillation) C [ppm] [2, 5]: 0.027 ppm
- φ Organique (distillat) C [ppm] [2, 5]: < LoQ
- φ Aqueuse (résidu de distillation) C [ppm] [2, 6]: 0.024 ppm
- φ Organique (distillat) C [ppm] [2, 6]: < LoQ
- signaux dans la phase organique recueillie après hydrodistillation [1]: absence des signaux

SMILES: C/C=C1/C[C@@H](C)[C@](O)(CO)C(=O)OCC2=CC[N@@+]3([O-])CC[C@@H](OC1=O)[C@@H]23 [Rétrorsine-N-oxyde]
- φ Aqueuse (résidu de distillation) CT [ppm] [2, 3]: 0,621 ppm
- φ Aqueuse (résidu de distillation) CT [ppm] [2, 4]: 0,662 ppm
- φ Aqueuse (résidu de distillation) C [ppm] [2, 3]: 0,605 ppm
- φ Organique (distillat) C [ppm] [2, 3]: < LoQ
- φ Aqueuse (résidu de distillation) C [ppm] [2, 4]: 0,691 ppm
- φ Organique (distillat) C [ppm] [2, 4]: < LoQ
- φ Aqueuse (résidu de distillation) CT [ppm] [2, 5]: 0.593 ppm
- φ Aqueuse (résidu de distillation) CT [ppm] [2, 6]: 0.457 ppm
- φ Aqueuse (résidu de distillation) C [ppm] [2, 5]: 0.612 ppm
- φ Organique (distillat) C [ppm] [2, 5]: < LoQ
- φ Aqueuse (résidu de distillation) C [ppm] [2, 6]: 0.678 ppm
- φ Organique (distillat) C [ppm] [2, 6]: < LoQ
- profils UPLC-MS ciblés: presence in huile essentielle avec standards et distillée [1]: absentes
- signaux dans la phase organique recueillie après hydrodistillation [1]: absence des signaux

SMILES: C/C=C(\C)C(=O)O[C@@H]1CCN2CC=C(COC(=O)[C@](O)(C(C)C)[C@H](C)O)[C@H]12 [symphytine]
- tumeurs hépatiques (rat; [7]): provoquer des tumeurs hépatiques

SMILES: C/C=C1/C[C@@H](C)[C@@](C)(O)C(=O)OCC2=CCN3CC[C@@H](OC1=O)[C@@H]23 [sénécionine]
- signaux dans la phase organique recueillie après hydrodistillation [1]: absence des signaux

SMILES: C=C1C/C(=C/C)C(=O)O[C@@H]2CCN3CC=C(COC(=O)[C@]1(C)O)[C@H]23 [séneciphylline, sénéciphylline]
- signaux dans la phase organique recueillie après hydrodistillation [1]: absence des signaux

SMILES: CC(C)[C@](O)(C(=O)OCC1=CCN2CC[C@@H](O)[C@@H]12)[C@@H](C)O (stereo in doubt) [Lycopsamine]
- φ Aqueuse (résidu de distillation) CT [ppm] [2, 3]: 0,626 ppm
- φ Aqueuse (résidu de distillation) CT [ppm] [2, 4]: 0,656 ppm
- φ Aqueuse (résidu de distillation) C [ppm] [2, 3]: 0,698 ppm
- φ Organique (distillat) C [ppm] [2, 3]: < LoQ
- φ Aqueuse (résidu de distillation) C [ppm] [2, 4]: 0,678 ppm
- φ Organique (distillat) C [ppm] [2, 4]: < LoQ
- φ Aqueuse (résidu de distillation) CT [ppm] [2, 5]: 0.597 ppm
- φ Aqueuse (résidu de distillation) CT [ppm] [2, 6]: 0.550 ppm
- φ Aqueuse (résidu de distillation) C [ppm] [2, 5]: 0.621 ppm
- φ Organique (distillat) C [ppm] [2, 5]: < LoQ
- φ Aqueuse (résidu de distillation) C [ppm] [2, 6]: 0.588 ppm
- φ Organique (distillat) C [ppm] [2, 6]: < LoQ
- profils UPLC-MS ciblés: presence in huile essentielle avec standards et distillée [1]: absentes
- signaux dans la phase organique recueillie après hydrodistillation [1]: absence des signaux

SMILES: C/C=C1/C[C@@H](C)[C@@](C)(O)C(=O)OC/C2=C/CN(C)CC[C@@H](OC1=O)C2=O [senkirkine]
- tumeurs hépatiques (rat; [7]): provoquer des tumeurs hépatiques
